The values below come from patent US6706733B2, “Quinolinone derivative formulation and its production method” (Dainippon Ink and Chemicals, Inc., priority 1999, dated 2004).

Series [1] is described as follows: Absorption test in rats (plasma concentration after oral administration). It is filed as in vivo, male SD rats. The note with it: for Cmax (maximum plasma concentration): 100 mg/kg single oral administration by gastric tube, suspended in 0.5% aqueous methyl cellulose, plasma by HPLC; for Cmax (maximum plasma concentration) / AUC (area under the plasma concentration vs. time curve): fasted male SD rats; for AUC (area under the plasma concentration vs. time curve): 100 mg/kg single oral administration, trapezoidal equation plus elimination rate constant; for absorption as compared with the α-form crystals: rats, oral 100 mg/kg, regardless of whether crushed or not. The method, then: A comparison of absorption into bodies of rats was conducted for each of the crystal forms and their crushed products of the quinolinone derivative represented with chemical formula (I). Furthermore, each of the crystal forms of the quinolinone derivative represented with chemical formula (I) were crushed using an automated agate mortar.
The following provides an explanation of the test method.
100 mg/kg of each sample were administered orally in a single administration using a gastric tube to 3 male SD rats (age 6 weeks) fasted for 16 hours. The samples were administered after suspending in 0.5% aqueous methyl cellulose solution and preparing to a concentration of […]. Following administration, blood samples were collected over time from the tail vein using heparin-treated glass tubes, and the quinolinone derivative concentrations of the resulting plasma were assayed by HPLC.
The maximum Plasma concentration (Cmax) and area under the plasma concentration vs. time curve (AUC) were determined from the assayed values of the quinolinone derivative at each blood sampling time.
Furthermore, Cmax was determined using measured values, while AUC was determined by calculating according to a trapezoidal equation until the time of measurement, and using the elimination rate constant after that time. The Cmax and AUC of each crystal form of the quinolinone derivative represented with chemical formula (I) are described as comparative examples.

The nature of series [2]: Photostability test (6 months under direct sunlight, HPLC content). It is filed as physicochemical. The note with it: room temperature; for stability with respect to light compared among crystal forms: 6 months direct sunlight; for Residual rate of quinolinone derivative: transparent sealed container, nitrogen, direct sunlight. The protocol: 0.5 g of each of the crystal forms of the quinolinone derivative represented with chemical formula (I) were filled into a transparent and sealed container in a nitrogen atmosphere, and were stored for 6 months under direct sunlight at room temperature.
The content of each crystal form of the quinolinone derivative represented with chemical formula (I) was assayed over time by HPLC followed by a comparison of stability.

The mark [3] stands for this setting: storage period 0 days (100% prior to storage).

For the molecule `CCCCCCCCOc1c(O)c2ccc(NC(=O)/C=C/c3cc(OC)c(O)c(OC)c3)cc2n(C)c1=O` [Crushed α-form crystals], in series [1], the “Cmax (maximum plasma concentration)” value turned out to be 33000 ng/mL and the “AUC (area under the plasma concentration vs. time curve)” value stood at 253 µg·h/mL.

Consider `CCCCCCCCOc1c(O)c2ccc(NC(=O)/C=C/c3cc(OC)c(O)c(OC)c3)cc2n(C)c1=O` [Crushed β-form crystals], for which, in series [1], the “Cmax (maximum plasma concentration)” value is 67000 ng/mL and the “AUC (area under the plasma concentration vs. time curve)” value came out at 586 µg·h/mL.

As for `CCCCCCCCOc1c(O)c2ccc(NC(=O)/C=C/c3cc(OC)c(O)c(OC)c3)cc2n(C)c1=O` [Crushed γ-form crystals], in series [1], the “Cmax (maximum plasma concentration)” value was 65000 ng/mL and the “AUC (area under the plasma concentration vs. time curve)” value amounted to 575 µg·h/mL.

As to `CCCCCCCCOc1c(O)c2ccc(NC(=O)/C=C/c3cc(OC)c(O)c(OC)c3)cc2n(C)c1=O` [Crushed δ-form crystals], in series [1], the “Cmax (maximum plasma concentration)” value is 63000 ng/mL and the “AUC (area under the plasma concentration vs. time curve)” value was 597 µg·h/mL.

For `CCCCCCCCOc1c(O)c2ccc(NC(=O)/C=C/c3cc(OC)c(O)c(OC)c3)cc2n(C)c1=O` [α-form crystals], in series [1], the “Cmax (maximum plasma concentration)” value worked out at 10000 ng/mL. Moreover, the “AUC (area under the plasma concentration vs. time curve)” value in series [1] was determined as 73 µg·h/mL. The “stability with respect to light compared among crystal forms” value (“stability … compared among crystal forms” for short) in series [2] is listed as “relatively stable”. In addition, the “Residual rate of quinolinone derivative” value stood at 100% in series [2] (setting [3]), 97.2% in series [2] (storage period 1 month), 85.1% in series [2] (storage period 6 months) and 99.1% in series [2] (storage period 15 days).

In the case of `CCCCCCCCOc1c(O)c2ccc(NC(=O)/C=C/c3cc(OC)c(O)c(OC)c3)cc2n(C)c1=O` [β-form crystals], the “Cmax (maximum plasma concentration)” value in series [1] stood at 41000 ng/mL. The “AUC (area under the plasma concentration vs. time curve)” value in series [1] stood at 375 µg·h/mL. Further, in series [1], the “absorption as compared with the α-form crystals” value is recorded as “superior absorption”. Moreover, in series [2], the “stability … compared among crystal forms” value is recorded as “relatively stable”. Moreover, the “Residual rate of quinolinone derivative” value in series [2] (setting [3]) was determined as 100%; in series [2] (storage period 1 month), 96.8%; in series [2] (storage period 6 months) it was 84.5%; in series [2] (storage period 15 days), 98.7%.

`CCCCCCCCOc1c(O)c2ccc(NC(=O)/C=C/c3cc(OC)c(O)c(OC)c3)cc2n(C)c1=O` [γ-form crystals]: in series [1], the “Cmax (maximum plasma concentration)” value worked out at 38000 ng/mL. Besides, the “AUC (area under the plasma concentration vs. time curve)” value in series [1] came to 325 µg·h/mL. The “absorption as compared with the α-form crystals” value in series [1] is “superior absorption”. In series [2], the “stability … compared among crystal forms” value is recorded as “relatively stable”. In addition, the “Residual rate of quinolinone derivative” value in series [2] (setting [3]) worked out at 100%; in series [2] (storage period 1 month), 96.5%; in series [2] (storage period 6 months), 84.1%; in series [2] (storage period 15 days), 98.9%.

Take `CCCCCCCCOc1c(O)c2ccc(NC(=O)/C=C/c3cc(OC)c(O)c(OC)c3)cc2n(C)c1=O` [δ-form crystals]: the “Cmax (maximum plasma concentration)” value in series [1] was found to be 51000 ng/mL. Moreover, the “AUC (area under the plasma concentration vs. time curve)” value in series [1] amounted to 512 µg·h/mL. In series [1], the “absorption as compared with the α-form crystals” value is “superior absorption”. For the same molecule, in series [2], the “stability … compared among crystal forms” value is listed as “extremely unstable”. Besides, the “Residual rate of quinolinone derivative” value in series [2] (setting [3]) is on record as 100%; in series [2] (storage period 1 month), 91.4%; in series [2] (storage period 6 months) it was 57.3%; in series [2] (storage period 15 days), 96.2%.
